This is an account of results in article PMC8353992 (Journal of medicinal chemistry, 2021).

This assay has as its target SARS-CoV-2 3CL^pro (Severe acute respiratory syndrome coronavirus 2, UniProt P0DTD1). Format: biochemical.

Consider `O=C(Cc1cccnc1)N(Cc1cccc(Cl)c1)c1ccc(-c2cn[nH]c2)cc1` [Compound 42, N-[(3-Chlorophenyl)methyl]-N-[4-(1H-pyrazol-4-yl)phenyl]-2-(3-pyridyl)acetamide], for which the primary biochemical potency entry is given as “micromolar levels”.
Regarding `O=C(Cc1cncnc1)N(Cc1cccc(Cl)c1)c1ccc(-c2cn[nH]c2)cc1` [Compound 43, N-[(3-Chlorophenyl)methyl]-N-[4-(1H-pyrazol-4-yl)phenyl]-2-pyrimidin-5-yl-acetamide], the primary biochemical potency result was “micromolar levels”.
